“And” between values parts separate entries of the source, which are not always exact repeats. Equal entries are not always repeated. Where two headings read alike, the source gives them in different places. Marks after values point to notes of the source that are not given here.
Columns and labels:
hCB1Rs [1] = target: T1, hCB1Rs (Homo sapiens, UniProt P21554); assay type: cell-based; conditions: for β-Arrestin 2 Assay (Operational) ΔLog(τ/KA): normalized to reference CP-55,940; for β-Arrestin 2 Assay (Operational) Log(τ/KA): operational model; for β-Arrestin 2 Assay EMAX / β-Arrestin 2 Assay pEC50 / EC50: CHO-β2-hCB1 cells; for β-Arrestin 2 Assay EMAX: 90 min, fraction of the effect produced by the reference agonist CP-55,940; for β-Arrestin 2 Assay pEC50 / EC50: 90 min incubation; for EC50: read-out: β-Arrestin 2 Assay EC50
T1 sequence (P21554 whole entry): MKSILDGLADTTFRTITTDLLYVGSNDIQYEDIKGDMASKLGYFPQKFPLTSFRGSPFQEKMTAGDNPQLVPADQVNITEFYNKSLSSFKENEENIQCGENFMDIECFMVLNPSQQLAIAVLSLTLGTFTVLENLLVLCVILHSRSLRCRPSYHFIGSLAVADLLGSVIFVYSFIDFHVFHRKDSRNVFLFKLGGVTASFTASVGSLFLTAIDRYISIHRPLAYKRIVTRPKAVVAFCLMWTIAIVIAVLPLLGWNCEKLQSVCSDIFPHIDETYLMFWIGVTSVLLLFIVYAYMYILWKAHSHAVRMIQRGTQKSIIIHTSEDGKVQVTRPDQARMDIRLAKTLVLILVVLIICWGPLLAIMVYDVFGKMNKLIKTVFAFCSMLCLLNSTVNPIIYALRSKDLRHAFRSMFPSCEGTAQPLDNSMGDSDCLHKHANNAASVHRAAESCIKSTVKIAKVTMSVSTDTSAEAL

hCB1Rs [2] = target: T1, hCB1Rs; experiment: Forskolin-stimulated intracellular cAMP levels; assay type: cell-based; conditions: for cAMP Assay Log(τ/KA): Black-Leff operational model; for cAMP Assay pIC50 / cAMP Assay IMAX / IC50: intact CHO-β2-hCB1 cells; for cAMP Assay pIC50 / IC50: 10 µM forskolin; for cAMP Assay IMAX: fraction of the effect produced by the reference agonist CP-55,940; for IC50: read-out: cAMP Assay IC50
hCB1Rs [3] = experiment: Biased hCB1R signaling: ΔΔlog; parameters: species or system human; conditions: CHO-β2-hCB1, reference CP-55,940; for GTPγS / β-Arrestin 2 (Operational) Bias Factor: 10^ΔΔlog(τ/KA); for GTPγS / β-Arrestin 2 (Operational) ΔΔLog(τ/KA) / AC / β-Arrestin 2 (Competitive) ΔΔLog(τ/KA) / AC / β-Arrestin 2 (Operational) ΔΔLog(τ/KA) / GTPγS / β-Arrestin 2 (Competitive) ΔΔLog(τ/KA): 95% confidence interval in parentheses
hCB1Rs [4] = target: T1, hCB1Rs; assay type: binding; conditions: 0.2 nM [^3H]-CP55,940; for ^3H-CP-55,940 Binding pKi: mean ± S.E.M.; for Ki: read-out: ^3H-CP-55,940 Binding Ki
hCB1Rs [5] = target: T1, hCB1Rs; experiment: [^35S]GTPγS binding; assay type: biochemical; conditions: for ^35S-GTPγS Binding Assay ΔLog(τ/KA): CHO-β2-hCB1, normalized to reference CP-55,940, 95% CI printed in the cell; for ^35S-GTPγS Binding Assay EMAX: fraction of the effect produced by the reference agonist CP-55,940; for EC50: read-out: ^35S-GTPγS Binding Assay EC50
hCB1Rs [6] = target: T1, hCB1Rs; experiment: CB1 receptor down-regulation after chronic drug exposure; assay type: cell-based
hCB1 and hCB2Rs = conditions: ref [29]; cited from earlier work
hCB1Rs [7] = target: T1, hCB1Rs; experiment: CB1 receptor desensitization after chronic drug exposure; assay type: cell-based; conditions: CHO-hCB1-Rx cells; at 1 hr; CP-55,940 10^−7 M or PNR-4-20 10^−5 M
NIH-Swiss mice = experiment: In vivo cannabinoid tetrad; parameters: species or system mouse
[8] = CHO-β2-hCB1, 95% CI printed in the cell

Row | Structure (SMILES) | β-Arrestin 2 Assay (Operational) ΔLog(τ/KA) (hCB1Rs [1]; [8]) | β-Arrestin 2 Assay (Operational) Log(τ/KA) (hCB1Rs [1]; [8]) | β-Arrestin 2 Assay EMAX (hCB1Rs [1]) | β-Arrestin 2 Assay pEC50 (hCB1Rs [1]) | EC50 (hCB1Rs [1]) [nM] | cAMP Assay Log(τ/KA) (hCB1Rs [2]; [8]) | cAMP Assay pIC50 (hCB1Rs [2]) | cAMP Assay IMAX (hCB1Rs [2]) | IC50 (hCB1Rs [2]) [nM] | AC / β-Arrestin 2 (Operational) Bias Factor (hCB1Rs [3]) | GTPγS / β-Arrestin 2 (Operational) Bias Factor (hCB1Rs [3]) | GTPγS / β-Arrestin 2 (Operational) ΔΔLog(τ/KA) (hCB1Rs [3]) | ^3H-CP-55,940 Binding pKi (hCB1Rs [4]; CHO-β2-hCB1 membranes) | ^35S-GTPγS Binding Assay ΔLog(τ/KA) (hCB1Rs [5]) | ^35S-GTPγS Binding Assay pEC50 (hCB1Rs [5]; CHO-β2-hCB1 membranes) | ^35S-GTPγS Binding Assay EMAX (hCB1Rs [5]; CHO-β2-hCB1 membranes) | EC50 (hCB1Rs [5]; CHO-β2-hCB1 membranes) [nM] | AC / β-Arrestin 2 (Competitive) Bias Factor (hCB1Rs [3]) | GTPγS / β-Arrestin 2 (Competitive) Bias Factor (hCB1Rs [3]) | AC / β-Arrestin 2 (Competitive) ΔΔLog(τ/KA) (hCB1Rs [3]) | also measured
1 | CCCCCn1cc(C(=O)c2cccc3ccccc23)c2ccccc21 [JWH-018, reference compound] | 0.18^a (−0.15 to 0.51) | 7.27^a (7.20 to 7.34) | 1.16 ± 0.16 fractional units and 1.16±0.16^a fractional units | 7.17±0.08^a | 78.1 | 8.56^b (8.17 to 8.94) | 8.82±0.15^b | 0.90±0.05^a | 1.73 | 0.21 | 2.0 | 0.30 (−0.20 to 0.81) | 9.12±0.06^a | −0.12^a (−0.69 to −0.45) | 9.25±0.23^a | 1.02 ± 0.10 fractional units and 1.02±0.10^a fractional units | 0.749 | – | – | – | CB1R bias between G protein-dependent and β-arrestin 2 signaling (in words) (hCB1Rs [3]): little CB1R bias
2 | O=C1/C(=C/c2cn(Cc3ccc(F)cc3)c3ccccc23)N2CCC1CC2 [PNR-4-20] | −2.72^b (−3.33 to −2.10) | 4.37^b (3.82 to 4.93) | 0.24 ± 0.02 fractional units | 5.28±0.06^b | 5410 | 6.45^c (6.02 to 6.88) | 6.97±0.34^a,c | 1.26±0.10^a | 180 | 29.5 | 5.4 | 0.73 (0.09 to 1.36) | 6.83±0.03^b | −1.99^b (−2.54 to −1.43) | 7.29±0.09^b | 1.02 ± 0.10 fractional units | 53.9 | 13.5 | 2.5 | 1.13 (0.7 to 1.56) | β-Arrestin 2 Assay (Competitive) Log(τ/KA) (hCB1Rs [1]; CHO-β2-hCB1, competitive operational model, 95% CI printed in the cell): 4.84^b (4.53 to 5.16); β-Arrestin 2 Assay EMAX (hCB1Rs [1]; listed as PNR-420): 0.24±0.02^b fractional units; effect on β-arrestin 2 recruitment produced by CP-55,940 (co-incubation) (hCB1Rs [1]; CP-55,940 10^−7 M, test ligand 10^−7 to 10^−4 M): decreased; cAMP Assay ΔLog(τ/KA) (hCB1Rs [2]; CHO-β2-hCB1, normalized to reference CP-55,940, 95% CI printed in the cell): −1.25^c (−1.58 to −0.93); AC / β-Arrestin 2 (Operational) ΔΔLog(τ/KA) (hCB1Rs [3]): 1.47 (0.93 to 2.00); GTPγS / β-Arrestin 2 (Competitive) ΔΔLog(τ/KA) (hCB1Rs [3]): 0.40 (0.09 to 0.89); effect of chronic exposure on KD of [^3H]-CP-55,940 (hCB1Rs [6]; 10 hr exposure, data not shown): does not alter the KD of [^3H]-CP-55,940; reduction in binding (hCB1R density) (hCB1Rs [6]; CHO-hCB1-Rx cells, 10 hrs exposure, PNR-4-20 10^−5 M): 42.2 ± 1.7%; maximal reduction of hCB1R density (hCB1Rs [6]; CHO-hCB1-Rx cells, PNR-4-20 10^−5 M, 0 to 10 hrs): 76.4 ± 3.6%; maximal reduction of CB1R density (hCB1Rs [6]; CHO-β2-hCB1 cells, at 2 hrs, CP-55,940 10^−7 M or PNR-4-20 10^−5 M): 39.7 ± 4.9%; ^3H-CP-55,940 Binding pKi (hCB1Rs [4]; CHO-hCB1-Rx membranes): 7.11±0.13; Ki (hCB1Rs [4]; CHO-hCB1-Rx membranes): 85.1 nM; Ki (hCB1Rs [4]; CHO-β2-hCB1 membranes): 159 nM; selectivity of binding between hCB1 and hCB2Rs (hCB1 and hCB2Rs): bind relatively non-selectively to hCB1 and hCB2Rs; maximal reduction of G protein activation by CP-55,940 (10^−7 M) (hCB1Rs [7]): 46.0 ± 5.8%; ^35S-GTPγS Binding Assay pEC50 (hCB1Rs [5]; CHO-hCB1-Rx membranes): 6.89±0.09; ^35S-GTPγS Binding Assay EMAX (hCB1Rs [5]; CHO-β2-hCB1 membranes, listed as PNR-420): 1.02±0.10^a fractional units; EC50 (hCB1Rs [5]; CHO-hCB1-Rx membranes): 130 nM; activity in the cannabinoid tetrad (NIH-Swiss mice; NIH-Swiss mice, 10, 30, or 100 mg/kg i.p., assessed 35 min after injection): exhibits activity consistent with that of a CB1R agonist in all four measures of the cannabinoid tetrad; time of peak hypothermic effects after injection (NIH-Swiss mice; mice, radiotelemetry pilot studies, 5-min intervals, data not shown): 35 min
3 | Cc1c(C(=O)NN2CCCCC2)nn(-c2ccc(Cl)cc2Cl)c1-c1ccc(Cl)cc1 [rimonabant, reference compound] | – | – | – | – | – | – | – | – | – | – | – | – | – | – | – | – | – | – | – | – | reversal of PNR-4-20 tetrad effects by co-administered antagonist (NIH-Swiss mice; rimonabant 10 mg/kg with 100 mg/kg PNR-4-20, i.p., mice): significant reversal of the effects of PNR-4-20 on rectal temperature and catalepsy
4 | CCCCCCC(C)(C)c1ccc([C@@H]2C[C@H](O)CC[C@H]2CCCO)c(O)c1 [CP-55,940] | – | – | – | – | – | – | – | – | – | 1.00 | 1.0 | 0.0 | – | – | – | – | – | 1.00 | 1.00 | 0.0 | AC / β-Arrestin 2 (Operational) ΔΔLog(τ/KA) (hCB1Rs [3]): 0.0; GTPγS / β-Arrestin 2 (Competitive) ΔΔLog(τ/KA) (hCB1Rs [3]): 0.0
